Assay results published in US9867790B2, “Compositions and methods using cuminaldehyde” (NESTEC S.A., priority 2013, dated 2018).
Like-named read-outs stand apart in the source and are kept apart here.

Experiments:
mice [1] = test: insulin sensitivity in mice with chronic ingestion (FIG. 4); assay type: in vivo; settings: mice chronically fed high fat diet containing 0.2 wt %, vs same diet without
mice [2] = test: body weight gain in mice with chronic ingestion (FIG. 3); assay type: in vivo; settings: mice chronically fed high fat diet containing 0.2 wt %, vs same diet without
mice [3] = test: short term food intake after a single ingestion in mice (FIG. 5); assay type: in vivo; settings: vs sham gavage
TRPV1 [4] = molecular target: T1, TRPV1 (Homo sapiens, UniProt Q8NER1); settings: cited from earlier work
T1 construct: expressed in transfected cells

mice [5] = test: gastric emptying after a single ingestion in mice (FIG. 6); assay type: in vivo; settings: vs sham gavage
TRPA1 [6] = settings: read-out: EC50 of TRPA1 activation; cited from earlier work
TRPV1 [7] = molecular target: T1, TRPV1; test: in vitro activation of TRPV1 in cells (FIG. 7); assay type: cell-based; settings: FIG. 7, triangles
TRPM8 [8] = molecular target: T2, TRPM8 (Homo sapiens, UniProt Q7Z2W7); test: desensitization of TRPM8 by pretreatment before icilin (FIGS. 8A, 8B); assay type: cell-based; parameters: host or cells: cells, not specified; settings: applied to cells fifteen minutes before icilin
Protocol: (§1) Specifically, cuminaldehyde was applied to cells fifteen minutes before cinnamaldehyde, icilin and capsaicin, which are specific agonists for TRPA1, TRPM8 and TRPV1 cation channels, respectively. After specific agonist application, the cation channel expression was measured. […] The left bars in each graph represent the controls lacking cuminaldehyde pretreatment, the right bars in each graph represent the samples including cuminaldehyde pretreatment.

TRPV1 [9] = molecular target: T1, TRPV1; test: desensitization of TRPV1 by pretreatment before capsaicin (FIGS. 8A, 8B); assay type: cell-based; settings: applied to cells fifteen minutes before capsaicin
Protocol: as §1

TRPA1 [10] = molecular target: T3, TRPA1 (Homo sapiens, UniProt O75762); test: in vitro activation of TRPA1 in cells (FIG. 7); assay type: cell-based
T3 construct: expressed in transfected cells

"empty" cells = test: in vitro activation of "empty" cells (FIG. 7); assay type: cell-based
TRPA1 [11] = molecular target: T3, TRPA1; test: desensitization of TRPA1 by pretreatment before cinnamaldehyde (FIGS. 8A, 8B); assay type: cell-based; settings: applied to cells fifteen minutes before cinnamaldehyde
Protocol: as §1

TRPM8 [12] = molecular target: T2, TRPM8; test: in vitro activation of hTRPM8 in cells (FIG. 7); assay type: cell-based; parameters: expressed in transfected cells; settings: FIG. 7, squares

T1 sequence (Q8NER1 whole entry, species assumed): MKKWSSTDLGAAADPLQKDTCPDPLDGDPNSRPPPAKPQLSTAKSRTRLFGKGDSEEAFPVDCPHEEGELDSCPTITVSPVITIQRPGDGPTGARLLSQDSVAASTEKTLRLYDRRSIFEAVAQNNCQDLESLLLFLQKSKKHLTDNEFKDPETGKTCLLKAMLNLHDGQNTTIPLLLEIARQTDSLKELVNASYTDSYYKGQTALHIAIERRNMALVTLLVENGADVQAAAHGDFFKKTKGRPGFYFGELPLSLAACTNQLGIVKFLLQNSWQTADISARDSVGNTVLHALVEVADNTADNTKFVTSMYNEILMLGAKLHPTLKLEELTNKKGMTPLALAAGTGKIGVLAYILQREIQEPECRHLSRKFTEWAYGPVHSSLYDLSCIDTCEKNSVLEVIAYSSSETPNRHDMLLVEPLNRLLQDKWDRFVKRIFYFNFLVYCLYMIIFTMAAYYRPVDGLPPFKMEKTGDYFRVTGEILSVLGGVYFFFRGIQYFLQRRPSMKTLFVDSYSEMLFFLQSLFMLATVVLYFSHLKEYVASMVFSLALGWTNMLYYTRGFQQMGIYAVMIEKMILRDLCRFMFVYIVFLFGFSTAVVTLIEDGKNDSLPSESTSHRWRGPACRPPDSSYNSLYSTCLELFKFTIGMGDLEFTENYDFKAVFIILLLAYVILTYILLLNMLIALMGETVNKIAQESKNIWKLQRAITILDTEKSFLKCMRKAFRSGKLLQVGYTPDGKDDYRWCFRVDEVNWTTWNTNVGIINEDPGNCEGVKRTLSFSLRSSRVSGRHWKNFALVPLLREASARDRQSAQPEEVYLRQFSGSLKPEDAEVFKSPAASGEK
T3 sequence (O75762 whole entry, species assumed): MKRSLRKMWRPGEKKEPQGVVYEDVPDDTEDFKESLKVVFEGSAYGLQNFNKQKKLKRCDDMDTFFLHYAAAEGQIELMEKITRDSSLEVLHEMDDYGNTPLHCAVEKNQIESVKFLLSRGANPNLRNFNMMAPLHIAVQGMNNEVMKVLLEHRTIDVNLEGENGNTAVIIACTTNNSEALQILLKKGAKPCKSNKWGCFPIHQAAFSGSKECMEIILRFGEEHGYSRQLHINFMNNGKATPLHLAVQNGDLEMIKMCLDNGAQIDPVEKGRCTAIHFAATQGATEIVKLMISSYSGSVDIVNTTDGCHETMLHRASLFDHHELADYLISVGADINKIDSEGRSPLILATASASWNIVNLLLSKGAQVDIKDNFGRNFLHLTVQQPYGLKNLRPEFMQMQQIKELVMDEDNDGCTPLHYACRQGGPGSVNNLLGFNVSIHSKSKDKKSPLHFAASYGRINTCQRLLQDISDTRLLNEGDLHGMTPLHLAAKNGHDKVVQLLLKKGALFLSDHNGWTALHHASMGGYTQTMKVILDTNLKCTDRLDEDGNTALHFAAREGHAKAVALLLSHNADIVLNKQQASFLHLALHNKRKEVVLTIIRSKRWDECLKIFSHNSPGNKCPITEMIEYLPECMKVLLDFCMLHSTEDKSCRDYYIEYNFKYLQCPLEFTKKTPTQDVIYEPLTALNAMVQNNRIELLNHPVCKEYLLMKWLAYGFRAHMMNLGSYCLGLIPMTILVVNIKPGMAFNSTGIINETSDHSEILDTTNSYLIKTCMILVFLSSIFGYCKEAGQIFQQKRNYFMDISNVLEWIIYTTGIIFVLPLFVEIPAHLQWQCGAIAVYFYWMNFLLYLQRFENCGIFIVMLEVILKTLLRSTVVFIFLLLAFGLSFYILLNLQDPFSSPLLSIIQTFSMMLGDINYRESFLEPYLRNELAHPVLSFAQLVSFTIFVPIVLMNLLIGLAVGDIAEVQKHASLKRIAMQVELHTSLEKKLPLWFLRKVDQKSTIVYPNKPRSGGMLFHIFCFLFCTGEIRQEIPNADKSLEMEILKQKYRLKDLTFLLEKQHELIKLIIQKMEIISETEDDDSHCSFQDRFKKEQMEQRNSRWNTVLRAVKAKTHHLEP
T2 sequence (Q7Z2W7 whole entry): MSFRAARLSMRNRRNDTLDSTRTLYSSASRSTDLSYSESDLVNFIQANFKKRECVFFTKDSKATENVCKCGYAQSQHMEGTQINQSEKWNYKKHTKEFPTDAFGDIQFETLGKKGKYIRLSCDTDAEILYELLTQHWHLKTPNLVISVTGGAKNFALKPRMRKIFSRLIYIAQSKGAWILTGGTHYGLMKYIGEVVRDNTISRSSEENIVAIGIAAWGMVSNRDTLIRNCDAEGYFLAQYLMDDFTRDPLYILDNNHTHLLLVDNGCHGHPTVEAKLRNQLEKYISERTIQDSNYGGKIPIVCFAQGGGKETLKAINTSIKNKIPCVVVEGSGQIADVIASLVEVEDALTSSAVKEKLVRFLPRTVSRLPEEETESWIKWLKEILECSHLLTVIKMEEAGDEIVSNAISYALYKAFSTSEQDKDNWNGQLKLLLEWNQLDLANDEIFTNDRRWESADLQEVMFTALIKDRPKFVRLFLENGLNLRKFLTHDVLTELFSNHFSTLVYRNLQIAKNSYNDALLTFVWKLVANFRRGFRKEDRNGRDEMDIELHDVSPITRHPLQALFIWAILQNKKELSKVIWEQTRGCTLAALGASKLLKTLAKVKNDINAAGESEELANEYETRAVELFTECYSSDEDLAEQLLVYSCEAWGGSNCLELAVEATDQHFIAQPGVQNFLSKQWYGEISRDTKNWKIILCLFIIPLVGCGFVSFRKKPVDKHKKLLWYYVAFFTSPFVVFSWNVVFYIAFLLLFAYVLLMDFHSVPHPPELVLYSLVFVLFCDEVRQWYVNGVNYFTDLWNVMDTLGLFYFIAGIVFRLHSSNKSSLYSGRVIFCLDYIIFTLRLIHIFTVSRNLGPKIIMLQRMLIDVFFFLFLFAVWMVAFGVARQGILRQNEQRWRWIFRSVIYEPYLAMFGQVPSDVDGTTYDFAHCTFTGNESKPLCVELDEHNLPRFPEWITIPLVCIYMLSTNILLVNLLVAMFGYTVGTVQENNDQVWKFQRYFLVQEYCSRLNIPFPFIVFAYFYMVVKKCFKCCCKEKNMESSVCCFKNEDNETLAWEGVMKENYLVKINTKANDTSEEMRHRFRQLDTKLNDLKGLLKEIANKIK

| SMILES | insulin sensitivity (mice [1]) | body weight gain (mice [2]) | short term food intake (mice [3]) | activation of TRPV1 (TRPV1 [4]) | gastric emptying (mice [5]) | EC50 (TRPA1 [6]) [µM] | activation of TRPV1 (TRPV1 [7]) | desensitization of TRPM8 (TRPM8 [8]) | desensitization of TRPV1 (TRPV1 [9]) | activation of TRPA1 (TRPA1 [10]; FIG. 7, diamonds) | efficacy of TRPA1 activation relative to cinnamaldehyde (TRPA1 [10]; relative to known TRPA1 agonist cinnamaldehyde) [%] | activation of "empty" cells ("empty" cells) | desensitization of TRPA1 (TRPA1 [11]) | activation of hTRPM8 (TRPM8 [12]) |
| --- | --- | --- | --- | --- | --- | --- | --- | --- | --- | --- | --- | --- | --- | --- |
| O=CC=Cc1ccccc1 [cinnamaldehyde] | improved insulin sensitivity | gained less weight | reduction in short term food intake | not | delayed gastric emptying | ~60 | – | – | – | – | – | – | – | – |
| CC(C)c1ccc(C=O)cc1 [cuminaldehyde] | – | – | – | – | – | – | no activation was observed | does not desensitize | does not desensitize | activated TRPA1 (diamonds) in a dose-dependent fashion | 140 | no activation was observed | does not desensitize | no activation was observed |
